# Source: ChEMBL document CHEMBL5303304, “EUbOPEN Chemogenomics Library - IncuCyte” (2023)
# Where “and” joins values, the source holds several entries; their conditions need not be identical. Identical values can stand only once.
# What was measured:
# Type in all cases: toxicity, cell-based
# HEK-293T = test: Incucyte cell viability with HEK293T; details: human, 10 µM, compound concentration 10 uM
# Fibroblast = test: Incucyte cell viability with human fibroblast; details: 10 µM, compound concentration 10 uM
# U2OS = test: Incucyte cell viability with U2OS; details: human, 10 µM, compound concentration 10 uM
# Further: unitless GR value; below 1 slowed growth and below 0 cell loss.
SMILES,"Growth Rate (HEK-293T; 0 h, replicate number 1)","Growth Rate (HEK-293T; 6 h, replicate number 2)","Growth Rate (Fibroblast; 0 h, replicate number 1)","Growth Rate (Fibroblast; 18 h, replicate number 2)","Growth Rate (Fibroblast; 24 h, replicate number 1)","Growth Rate (U2OS; 6 h, replicate number 1)","Growth Rate (U2OS; 12 h, replicate number 1)","Growth Rate (U2OS; 18 h, replicate number 1)","Growth Rate (U2OS; 24 h, replicate number 1)","Growth Rate (U2OS; 24 h, replicate number 2)","Growth Rate (HEK-293T; 24 h, replicate number 2)","Growth Rate (Fibroblast; 18 h, replicate number 1)","Growth Rate (Fibroblast; 24 h, replicate number 2)","Growth Rate (U2OS; 0 h, replicate number 1)","Growth Rate (HEK-293T; 0 h, replicate number 2)","Growth Rate (Fibroblast; 12 h, replicate number 2)","Growth Rate (U2OS; 0 h, replicate number 2)","Growth Rate (Fibroblast; 0 h, replicate number 2)","Growth Rate (HEK-293T; 12 h, replicate number 2)","Growth Rate (Fibroblast; 6 h, replicate number 1)",other results
CC(C)[C@@H]1CC[C@@H](C)C[C@@H]1P(=O)(c1ccccc1)c1ccccc1,0.49,0.56,0.25,0.92,0.9,0.44,0.44,0.78,0.74,1,,,,,,,,,,,"Growth Rate (U2OS; 12 h, replicate number 2): 0.96"
N[C@@H](Cn1cc(F)c(=O)[nH]c1=O)C(=O)O,0.81,0.86,,0.82,0.97,,,,,0.83,0.96,0.16,0.99,0.45,,,,,,,"Growth Rate (HEK-293T; 6 h, replicate number 1): 0.82; Growth Rate (HEK-293T; 12 h, replicate number 1): 0.99; Growth Rate (Fibroblast; 12 h, replicate number 1): -0.98; Growth Rate (U2OS; 6 h, replicate number 2): 0.7; Growth Rate (U2OS; 12 h, replicate number 2): 0.81; Growth Rate (U2OS; 18 h, replicate number 2): 0.8"
CN1CC[C@@]23CCCC[C@@H]2[C@@H]1Cc1ccc(O)cc13.O=C(O)C(O)C(O)C(=O)O,0.54,,0.67,0.13,,,,,,,,0.72,0.19,,0.37,-0.3,-0.41,,,,"Growth Rate (Fibroblast; 6 h, replicate number 2): -0.93; Growth Rate (Fibroblast; 12 h, replicate number 1): -0.94"
COc1ccc(CC(=O)NCc2ccccc2-c2ccccc2C(=O)NCc2ccc(F)cc2F)cc1,0.52,,,0.88,,,,,0.89,,,0.19,0.91,-0.79,,,-0.96,-0.36,,,
O=c1cc(-c2cc(F)c(Cl)nc2Cl)[nH]c2c(-c3ccccc3)c(C(F)(F)F)nn12,0.89,0.52,-0.22,,0.39,0.78,,,,,0.94,0.57,1,,,,,,0.74,,"Growth Rate (HEK-293T; 18 h, replicate number 1): 0.93; Growth Rate (HEK-293T; 18 h, replicate number 2): 0.98; Growth Rate (HEK-293T; 24 h, replicate number 1): 0.8; Growth Rate (Fibroblast; 12 h, replicate number 1): -0.36; Growth Rate (U2OS; 18 h, replicate number 2): -0.41"
CC(C)c1ccc(/C=N/NC(=O)c2ccc(O)cc2)cc1,0.78,0.04,,0.57,,,,,,0.98,0.63,,0.46,-0.47,,0.42,-0.95,,0.36,-0.99,"Growth Rate (HEK-293T; 6 h, replicate number 1): 0.39; Growth Rate (HEK-293T; 12 h, replicate number 1): 0.85; Growth Rate (HEK-293T; 18 h, replicate number 1): 0.85; Growth Rate (HEK-293T; 18 h, replicate number 2): 0.58; Growth Rate (HEK-293T; 24 h, replicate number 1): 0.81; Growth Rate (Fibroblast; 6 h, replicate number 2): 0.53"
O=S1(=O)NCN(C2CC2)c2ccc(F)cc21,0.98,0.62,0.5,,0.6,0.68,,0.99,0.9,0.93,,-0.11,0.91,0.05,0.78,,,0.39,,,"Growth Rate (U2OS; 6 h, replicate number 2): 0.82; Growth Rate (U2OS; 18 h, replicate number 2): 0.88"
O=C(O)c1ccc(S(=O)(=O)N(Cc2ccc(OC(F)(F)F)cc2)c2ncc(C(F)(F)F)cc2Cl)cc1,0.66,0.33,0.4,,0.93,,,,,0.85,0.93,0.16,,,,,,-0.5,0.79,0.15,"Growth Rate (HEK-293T; 18 h, replicate number 2): 0.81; Growth Rate (U2OS; 6 h, replicate number 2): 0.99; Growth Rate (U2OS; 12 h, replicate number 2): 0.75; Growth Rate (U2OS; 18 h, replicate number 2): 0.93"
Nc1nc2cc(-c3cc(Cl)ccc3Oc3cc(F)c(S(=O)(=O)Nc4ncns4)cc3F)ccc2[nH]1,0.66,,,,0.45,0.51,0.84,0.76,0.89,,,,0.9,-0.72,0.52,,0.2,-0.38,,-0.93,
COc1cc(Nc2ccc([N+](=O)[O-])cc2C(=O)O)cc2ccccc12,0.41,,,0.45,0.68,,,,0.98,,,-0.31,0.63,0.77,0.13,0.4,-0.1,,,,"Growth Rate (Fibroblast; 6 h, replicate number 2): -0.6"
O=c1ccc2c(OCCCCOc3ccccc3)c3ccoc3cc2o1,0.49,,,,0.92,0.73,,0.99,0.92,,,,,0.26,0.37,0.95,,,,,"Growth Rate (U2OS; 6 h, replicate number 2): 0.99"
CC(C)C[C@H](NC(=O)c1cc2ccccc2s1)C(=O)N1CCN(C(=O)[C@H](CO)NS(=O)(=O)c2ccc(Cl)cc2Cl)CC1,0.99,-0.01,,0.68,0,0.27,0.93,0.95,,0.66,0.46,-0.18,0.65,,,0.01,-1,,0.27,,"Growth Rate (HEK-293T; 6 h, replicate number 1): -0.15; Growth Rate (HEK-293T; 12 h, replicate number 1): 0.69; Growth Rate (HEK-293T; 18 h, replicate number 1): 0.71; Growth Rate (HEK-293T; 18 h, replicate number 2): 0.38; Growth Rate (HEK-293T; 24 h, replicate number 1): 0.78; Growth Rate (Fibroblast; 6 h, replicate number 2): -0.86; Growth Rate (Fibroblast; 12 h, replicate number 1): -0.95; Growth Rate (U2OS; 6 h, replicate number 2): 0.36; Growth Rate (U2OS; 12 h, replicate number 2): 0.51; Growth Rate (U2OS; 18 h, replicate number 2): 0.58"
CN1C2CCCC1CC(Nc1ccccc1Br)C2 (centres undefined),0.87,0.99,0.86,0.95,,,,,,,0.99,,0.92,,,0.88,-0.9,0.67,,-0.98,"Growth Rate (Fibroblast; 6 h, replicate number 2): -0.45; Growth Rate (Fibroblast; 12 h, replicate number 1): 0.42"
COc1ccc(-n2nc3c4ccccc4[nH]cc-3c2=O)cc1,0.6,0.53,,0.91,,0.7,0.89,,,,,,,-0.37,,0.81,-0.98,0.74,1,-0.1,
CC1(C)OC(=O)c2ccc(Nc3ncc(-c4nnco4)c(N[C@H](CO)c4ccccc4)n3)cc21,0.28,,,,,,0.78,0.44,0.47,0.62,-0.02,,,,-0.28,,-0.4,-0.49,-0.01,-1,"Growth Rate (HEK-293T; 12 h, replicate number 1): 0.23; Growth Rate (HEK-293T; 18 h, replicate number 1): 0.12; Growth Rate (HEK-293T; 18 h, replicate number 2): -0.01; Growth Rate (HEK-293T; 24 h, replicate number 1): 0.09; Growth Rate (U2OS; 18 h, replicate number 2): 0.69"
Clc1ccccc1C(c1ccccc1)(c1ccccc1)n1cccn1,0.43,0.9,,,,0.24,0.78,1,0.91,,,0.46,0.54,,0.27 and 0.15,0.39,-0.86,,,0.64,"Growth Rate (HEK-293T; 6 h, replicate number 1): 0.05; Growth Rate (HEK-293T; 12 h, replicate number 1): 0.26; Growth Rate (HEK-293T; 18 h, replicate number 1): 0.83; Growth Rate (HEK-293T; 24 h, replicate number 1): 0.89; Growth Rate (U2OS; 6 h, replicate number 2): 0.65; Growth Rate (U2OS; 12 h, replicate number 2): 0.9; Growth Rate (U2OS; 18 h, replicate number 2): 0.94"
CCOC(=O)c1ncn2c1[C@@H]1CCCN1C(=O)c1cc(OC)ccc1-2,0.49,,0.48,,0.63,0.4,0.92,0.9,0.81,,0.95,0.09,,-0.46,1,,-0.82,-0.85,0.89,0.02,"Growth Rate (HEK-293T; 18 h, replicate number 1): 0.83; Growth Rate (HEK-293T; 24 h, replicate number 1): 0.82; Growth Rate (Fibroblast; 6 h, replicate number 2): 0.2"
Cc1cccc([C@H]2CC[C@@H](N3CCN(c4cccnc4)CC3)CC2)c1.O=C(O)C(F)(F)F.O=C(O)C(F)(F)F,0.98,0.45,,,0.58,,1,0.97,0.93,,0.79,,0.94,,,,-0.63,-0.88,0.66,-0.37,"Growth Rate (HEK-293T; 18 h, replicate number 2): 0.73; Growth Rate (Fibroblast; 6 h, replicate number 2): -0.32"
O=C(/N=c1\sccn1Cc1ccccc1)c1c[nH]c2ncccc12,-0.78,,,,,,,,,,,,,,-0.86,,-0.96,,,-1,
